Patent US11530221B2, “Pyrimido[4,5-d]pyrimidin-2-one derivatives as protein kinase inhibitors” (KOREA INSTITUTE OF SCIENCE AND TECHNOLOGY, priority 2019, dated 2022)
pIC50: −log10 of the molar value.

Experiments:
Format in all cases: biochemical
[1] = target: HCK (Homo sapiens, UniProt P08631); assay: Full kinase panel, single concentration: HCK; details: single concentration of 1 μM; read-out: residual enzyme activity (%) HCK
Protocol: (§1) In order to measure the inhibitory activity (% inhibitory capacity) against protein kinases of the compounds of the present invention, biochemical assays were performed using a full kinase panel.
(§2) The experimental compounds used herein were the compounds of Compound Nos. 1 and 33. The residual enzyme activity (%) was calculated by measuring the inhibitory activity against kinases upon treatment with the experimental compound at a single concentration of 1 μM. Kinases having calculated residual enzyme activity (%) of 30% or less (that is, inhibition of 70% or more) are shown below.

[2] = target: T1, c-Src (Homo sapiens, UniProt P12931); assay: IC50 inhibitory activity against c-Src kinase; details: read-out: c-Src IC50
T1 sequence (P12931 whole entry): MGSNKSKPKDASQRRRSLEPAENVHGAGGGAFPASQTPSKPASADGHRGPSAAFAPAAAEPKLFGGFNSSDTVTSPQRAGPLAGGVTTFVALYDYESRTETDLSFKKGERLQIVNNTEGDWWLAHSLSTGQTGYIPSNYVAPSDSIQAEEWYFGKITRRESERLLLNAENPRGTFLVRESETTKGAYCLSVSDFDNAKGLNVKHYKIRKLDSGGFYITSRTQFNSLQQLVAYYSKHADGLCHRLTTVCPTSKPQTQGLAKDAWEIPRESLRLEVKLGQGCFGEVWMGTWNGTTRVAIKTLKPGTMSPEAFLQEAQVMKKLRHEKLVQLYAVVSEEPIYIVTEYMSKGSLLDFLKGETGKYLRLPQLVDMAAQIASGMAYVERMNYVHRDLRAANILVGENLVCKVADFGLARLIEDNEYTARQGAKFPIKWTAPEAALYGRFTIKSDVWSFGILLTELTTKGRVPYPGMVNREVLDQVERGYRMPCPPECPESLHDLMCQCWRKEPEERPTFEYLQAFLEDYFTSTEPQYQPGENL
Protocol: (§3) IC50 values were calculated by measuring the inhibitory activity against LCK, c-Src, p38a/MAPK14, ABL1, DDR1 and FGR kinases of the compounds of the present invention.

[3] = target: T2, DDR1 (Homo sapiens, UniProt Q08345); assay: IC50 inhibitory activity against DDR1 kinase; details: read-out: DDR1 IC50
T2 sequence (Q08345 19-913): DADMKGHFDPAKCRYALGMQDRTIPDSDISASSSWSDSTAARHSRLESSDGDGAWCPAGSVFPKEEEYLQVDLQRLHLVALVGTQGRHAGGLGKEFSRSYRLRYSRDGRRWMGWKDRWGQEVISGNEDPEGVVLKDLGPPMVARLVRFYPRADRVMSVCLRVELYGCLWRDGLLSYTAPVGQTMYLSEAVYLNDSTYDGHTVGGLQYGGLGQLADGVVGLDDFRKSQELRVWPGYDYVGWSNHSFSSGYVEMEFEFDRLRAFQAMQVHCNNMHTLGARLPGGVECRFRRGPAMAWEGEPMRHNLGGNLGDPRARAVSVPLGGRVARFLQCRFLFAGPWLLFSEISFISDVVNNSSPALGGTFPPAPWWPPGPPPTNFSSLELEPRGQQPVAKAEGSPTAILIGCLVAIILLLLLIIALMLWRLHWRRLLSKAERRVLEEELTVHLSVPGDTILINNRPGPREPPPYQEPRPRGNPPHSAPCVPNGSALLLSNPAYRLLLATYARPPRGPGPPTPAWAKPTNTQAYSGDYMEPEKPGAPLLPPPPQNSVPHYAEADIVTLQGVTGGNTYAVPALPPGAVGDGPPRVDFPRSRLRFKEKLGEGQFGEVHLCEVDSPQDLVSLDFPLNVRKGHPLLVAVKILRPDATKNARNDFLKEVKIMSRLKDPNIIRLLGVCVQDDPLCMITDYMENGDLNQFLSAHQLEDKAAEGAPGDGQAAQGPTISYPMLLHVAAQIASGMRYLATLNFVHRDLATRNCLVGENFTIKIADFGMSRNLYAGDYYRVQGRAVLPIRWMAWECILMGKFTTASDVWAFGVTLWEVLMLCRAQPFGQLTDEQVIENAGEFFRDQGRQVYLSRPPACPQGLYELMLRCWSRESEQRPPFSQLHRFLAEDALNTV
Protocol: as §3

[4] = target: CSK (Homo sapiens, UniProt P41240); assay: Full kinase panel, single concentration: CSK; details: single concentration of 1 μM; read-out: residual enzyme activity (%) CSK
CSK, sequence (P41240 whole entry): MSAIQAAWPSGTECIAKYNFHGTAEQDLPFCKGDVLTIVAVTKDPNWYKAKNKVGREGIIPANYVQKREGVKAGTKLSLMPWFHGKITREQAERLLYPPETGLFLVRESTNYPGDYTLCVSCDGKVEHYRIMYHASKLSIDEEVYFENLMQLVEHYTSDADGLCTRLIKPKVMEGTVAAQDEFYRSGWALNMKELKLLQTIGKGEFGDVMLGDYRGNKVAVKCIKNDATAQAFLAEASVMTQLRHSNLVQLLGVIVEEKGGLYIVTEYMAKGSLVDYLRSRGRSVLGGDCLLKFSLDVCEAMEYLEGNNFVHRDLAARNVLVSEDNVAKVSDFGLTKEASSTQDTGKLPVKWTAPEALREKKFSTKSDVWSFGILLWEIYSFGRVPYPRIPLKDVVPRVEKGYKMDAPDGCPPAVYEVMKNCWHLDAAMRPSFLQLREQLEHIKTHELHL
Protocol: as §1, §2

[5] = target: p38a/MAPK14 (Homo sapiens, UniProt Q16539); assay: IC50 inhibitory activity against p38a/MAPK14 kinase; details: read-out: p38a/MAPK14 IC50
p38a/MAPK14, sequence (Q16539 whole entry): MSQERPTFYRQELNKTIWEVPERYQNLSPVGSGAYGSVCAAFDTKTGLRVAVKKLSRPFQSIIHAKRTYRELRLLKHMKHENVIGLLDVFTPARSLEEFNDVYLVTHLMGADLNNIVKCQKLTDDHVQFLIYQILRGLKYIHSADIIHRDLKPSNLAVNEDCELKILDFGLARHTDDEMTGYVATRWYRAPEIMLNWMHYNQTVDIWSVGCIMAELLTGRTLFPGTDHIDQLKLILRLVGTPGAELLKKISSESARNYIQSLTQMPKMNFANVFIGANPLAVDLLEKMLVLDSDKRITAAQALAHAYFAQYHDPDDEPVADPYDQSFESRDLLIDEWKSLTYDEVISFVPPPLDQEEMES
Protocol: as §3

[6] = target: ABL2 (Homo sapiens, UniProt P42684); assay: Full kinase panel, single concentration: ABL2; details: single concentration of 1 μM; read-out: residual enzyme activity (%) ABL2
ABL2, sequence (P42684 whole entry): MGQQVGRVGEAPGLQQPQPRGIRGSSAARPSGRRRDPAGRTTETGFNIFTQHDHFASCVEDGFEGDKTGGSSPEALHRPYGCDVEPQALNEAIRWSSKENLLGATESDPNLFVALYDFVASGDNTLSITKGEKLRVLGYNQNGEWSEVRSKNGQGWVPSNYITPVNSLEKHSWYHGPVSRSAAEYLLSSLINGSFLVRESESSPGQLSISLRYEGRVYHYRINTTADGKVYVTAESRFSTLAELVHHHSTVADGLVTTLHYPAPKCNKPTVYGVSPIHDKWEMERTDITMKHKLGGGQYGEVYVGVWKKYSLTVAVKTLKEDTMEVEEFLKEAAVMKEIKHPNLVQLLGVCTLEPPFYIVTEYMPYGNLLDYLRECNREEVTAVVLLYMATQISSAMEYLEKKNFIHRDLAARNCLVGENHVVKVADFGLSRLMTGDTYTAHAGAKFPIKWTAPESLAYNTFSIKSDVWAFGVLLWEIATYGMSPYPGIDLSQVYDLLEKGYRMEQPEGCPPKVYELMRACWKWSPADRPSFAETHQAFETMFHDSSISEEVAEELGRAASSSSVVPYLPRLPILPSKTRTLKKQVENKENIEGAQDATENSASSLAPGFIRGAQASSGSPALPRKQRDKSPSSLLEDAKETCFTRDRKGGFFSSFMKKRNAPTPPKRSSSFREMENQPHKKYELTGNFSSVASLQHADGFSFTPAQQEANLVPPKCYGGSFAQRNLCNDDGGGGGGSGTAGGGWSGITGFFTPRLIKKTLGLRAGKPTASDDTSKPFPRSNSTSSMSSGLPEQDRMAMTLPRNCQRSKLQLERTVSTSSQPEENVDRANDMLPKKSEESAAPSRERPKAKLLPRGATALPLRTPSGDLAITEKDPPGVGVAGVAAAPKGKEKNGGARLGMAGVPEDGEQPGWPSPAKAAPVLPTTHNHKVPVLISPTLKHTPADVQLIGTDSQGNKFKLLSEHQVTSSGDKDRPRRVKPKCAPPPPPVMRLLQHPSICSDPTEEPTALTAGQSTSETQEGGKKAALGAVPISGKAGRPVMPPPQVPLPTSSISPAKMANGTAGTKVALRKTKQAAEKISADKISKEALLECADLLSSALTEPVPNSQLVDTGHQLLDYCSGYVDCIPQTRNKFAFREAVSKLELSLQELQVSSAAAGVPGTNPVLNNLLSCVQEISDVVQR
Protocol: as §1, §2

[7] = target: T2, DDR1; assay: Full kinase panel, single concentration: DDR1; details: single concentration of 1 μM; read-out: residual enzyme activity (%) DDR1
Protocol: as §1, §2

[8] = target: T1, c-Src; assay: Full kinase panel, single concentration: c-Src; details: single concentration of 1 μM; read-out: residual enzyme activity (%) c-Src
Protocol: as §1, §2

[9] = target: T3, LYN (Homo sapiens, UniProt P07948); assay: Full kinase panel, single concentration: LYN; details: single concentration of 1 μM; read-out: residual enzyme activity (%) LYN
T3 sequence (P07948 whole entry): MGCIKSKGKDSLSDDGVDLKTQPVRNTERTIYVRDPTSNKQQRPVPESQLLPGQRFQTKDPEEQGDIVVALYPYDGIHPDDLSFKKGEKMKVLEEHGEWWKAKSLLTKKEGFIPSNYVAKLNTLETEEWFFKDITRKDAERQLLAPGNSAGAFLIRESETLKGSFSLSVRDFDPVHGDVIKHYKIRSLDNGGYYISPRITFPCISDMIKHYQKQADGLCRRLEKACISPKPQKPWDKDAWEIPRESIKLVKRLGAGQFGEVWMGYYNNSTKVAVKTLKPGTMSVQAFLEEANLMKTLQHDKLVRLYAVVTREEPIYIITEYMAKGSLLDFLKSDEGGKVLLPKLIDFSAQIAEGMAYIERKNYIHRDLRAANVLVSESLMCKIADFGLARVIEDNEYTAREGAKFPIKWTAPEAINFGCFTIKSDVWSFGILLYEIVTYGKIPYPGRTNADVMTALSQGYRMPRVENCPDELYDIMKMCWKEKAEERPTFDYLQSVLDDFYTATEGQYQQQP
Protocol: as §1, §2

[10] = target: ABL1 (Homo sapiens, UniProt P00519); assay: IC50 inhibitory activity against ABL1 kinase; details: read-out: ABL1 IC50
Protocol: as §3

[11] = target: T4, FGR (Homo sapiens, UniProt P09769); assay: IC50 inhibitory activity against FGR kinase; details: read-out: FGR IC50
T4 sequence (P09769 whole entry): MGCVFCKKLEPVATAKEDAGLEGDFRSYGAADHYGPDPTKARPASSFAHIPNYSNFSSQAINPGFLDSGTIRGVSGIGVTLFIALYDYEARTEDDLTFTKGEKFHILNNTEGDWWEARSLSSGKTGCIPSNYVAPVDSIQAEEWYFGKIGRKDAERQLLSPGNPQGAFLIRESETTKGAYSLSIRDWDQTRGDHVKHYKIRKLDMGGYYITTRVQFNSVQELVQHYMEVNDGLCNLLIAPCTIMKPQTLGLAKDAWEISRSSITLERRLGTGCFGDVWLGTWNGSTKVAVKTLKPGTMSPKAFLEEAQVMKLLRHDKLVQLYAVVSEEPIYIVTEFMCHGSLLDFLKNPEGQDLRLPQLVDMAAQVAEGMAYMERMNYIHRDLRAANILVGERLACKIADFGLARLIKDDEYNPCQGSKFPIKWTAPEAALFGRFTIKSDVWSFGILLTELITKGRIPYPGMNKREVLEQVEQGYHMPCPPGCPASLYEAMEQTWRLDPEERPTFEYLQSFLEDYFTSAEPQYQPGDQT
Protocol: as §3

[12] = target: T5, LCK (Homo sapiens, UniProt P06239); assay: IC50 inhibitory activity against LCK kinase; details: read-out: LCK IC50
T5 sequence (P06239 whole entry): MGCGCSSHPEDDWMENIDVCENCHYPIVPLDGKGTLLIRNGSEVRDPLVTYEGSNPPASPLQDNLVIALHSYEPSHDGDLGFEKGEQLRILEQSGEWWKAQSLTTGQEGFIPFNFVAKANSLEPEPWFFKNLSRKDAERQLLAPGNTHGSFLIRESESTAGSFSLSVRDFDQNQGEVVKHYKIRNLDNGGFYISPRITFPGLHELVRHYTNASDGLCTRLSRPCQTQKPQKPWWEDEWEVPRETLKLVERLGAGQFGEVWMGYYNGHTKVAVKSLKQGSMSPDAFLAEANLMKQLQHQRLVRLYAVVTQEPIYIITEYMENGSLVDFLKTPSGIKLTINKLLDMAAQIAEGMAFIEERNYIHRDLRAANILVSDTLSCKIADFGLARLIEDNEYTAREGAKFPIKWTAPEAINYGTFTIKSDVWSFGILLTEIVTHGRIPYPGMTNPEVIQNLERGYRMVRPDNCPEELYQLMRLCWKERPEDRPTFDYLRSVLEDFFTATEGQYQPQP
Protocol: as §3

[13] = target: BLK (Homo sapiens, UniProt P51451); assay: Full kinase panel, single concentration: BLK; details: single concentration of 1 μM; read-out: residual enzyme activity (%) BLK
Protocol: as §1, §2

[14] = target: T6, BMX (Homo sapiens, UniProt P51813); assay: Full kinase panel, single concentration: BMX; details: single concentration of 1 μM; read-out: residual enzyme activity (%) BMX
T6 sequence (P51813 1-675): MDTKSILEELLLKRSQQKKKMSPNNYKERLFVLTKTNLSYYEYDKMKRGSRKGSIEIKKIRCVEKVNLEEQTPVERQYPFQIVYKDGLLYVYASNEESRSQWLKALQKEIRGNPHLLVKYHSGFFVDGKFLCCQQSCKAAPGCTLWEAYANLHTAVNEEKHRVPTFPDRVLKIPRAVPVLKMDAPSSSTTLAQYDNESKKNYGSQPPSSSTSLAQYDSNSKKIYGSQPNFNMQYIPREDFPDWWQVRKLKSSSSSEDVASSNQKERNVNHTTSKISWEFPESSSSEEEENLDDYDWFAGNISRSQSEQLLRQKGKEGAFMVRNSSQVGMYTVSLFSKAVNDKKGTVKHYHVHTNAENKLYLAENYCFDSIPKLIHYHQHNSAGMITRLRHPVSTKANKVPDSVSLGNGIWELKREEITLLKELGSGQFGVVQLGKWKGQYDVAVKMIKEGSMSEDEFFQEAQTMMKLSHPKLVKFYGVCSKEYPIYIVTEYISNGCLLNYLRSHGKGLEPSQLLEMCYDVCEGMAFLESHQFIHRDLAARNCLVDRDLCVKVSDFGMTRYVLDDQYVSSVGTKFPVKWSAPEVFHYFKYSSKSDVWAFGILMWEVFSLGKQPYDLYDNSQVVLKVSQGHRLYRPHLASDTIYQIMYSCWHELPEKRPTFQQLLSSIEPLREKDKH
Protocol: as §1, §2

[15] = target: RAF1 (Homo sapiens, UniProt P04049); assay: Full kinase panel, single concentration: RAF1; details: single concentration of 1 μM; read-out: residual enzyme activity (%) RAF1
Protocol: as §1, §2

[16] = target: T3, LYN; assay: IC50 inhibitory activity against LYN kinase
[17] = target: T4, FGR; assay: Full kinase panel, single concentration: FGR; details: single concentration of 1 μM; read-out: residual enzyme activity (%) FGR
Protocol: as §1, §2

[18] = target: ABL1 (T315I) (Homo sapiens, UniProt P00519, T315I); assay: IC50 inhibitory activity against ABL1 (T315I) kinase; details: read-out: ABL1 (T315I) IC50
Protocol: as §3

[19] = target: T5, LCK; assay: Full kinase panel, single concentration: LCK; details: single concentration of 1 μM; read-out: residual enzyme activity (%) LCK
Protocol: as §1, §2

[20] = target: T7, DDR2 (Homo sapiens, UniProt Q16832); assay: Full kinase panel, single concentration: DDR2; details: single concentration of 1 μM; read-out: residual enzyme activity (%) DDR2
T7 sequence (Q16832 22-855): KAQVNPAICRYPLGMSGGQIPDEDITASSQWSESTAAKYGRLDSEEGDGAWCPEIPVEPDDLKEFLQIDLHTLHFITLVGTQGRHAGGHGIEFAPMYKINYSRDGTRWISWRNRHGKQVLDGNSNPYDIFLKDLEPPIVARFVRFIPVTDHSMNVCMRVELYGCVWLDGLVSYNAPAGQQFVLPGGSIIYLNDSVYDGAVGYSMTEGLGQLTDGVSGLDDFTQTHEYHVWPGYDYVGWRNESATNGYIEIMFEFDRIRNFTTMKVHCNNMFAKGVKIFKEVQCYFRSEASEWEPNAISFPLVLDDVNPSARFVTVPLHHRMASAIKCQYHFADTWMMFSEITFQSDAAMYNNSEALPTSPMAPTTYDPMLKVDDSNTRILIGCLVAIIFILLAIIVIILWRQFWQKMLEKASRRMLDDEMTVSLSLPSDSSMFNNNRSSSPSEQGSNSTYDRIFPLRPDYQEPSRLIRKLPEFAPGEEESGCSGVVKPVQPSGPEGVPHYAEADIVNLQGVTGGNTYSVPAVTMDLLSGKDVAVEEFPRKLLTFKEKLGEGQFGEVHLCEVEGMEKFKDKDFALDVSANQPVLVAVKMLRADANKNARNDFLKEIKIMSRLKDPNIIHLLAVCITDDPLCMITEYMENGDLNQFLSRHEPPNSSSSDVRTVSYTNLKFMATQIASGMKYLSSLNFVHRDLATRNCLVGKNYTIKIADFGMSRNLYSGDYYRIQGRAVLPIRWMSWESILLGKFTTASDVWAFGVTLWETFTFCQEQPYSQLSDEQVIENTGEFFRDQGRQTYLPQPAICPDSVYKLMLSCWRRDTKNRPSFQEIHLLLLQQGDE
Protocol: as §1, §2

Cc1ccc(Nc2ncc3c(n2)N(C)C(=O)N(c2cc(NC(=O)c4ccc5c(c4)N(Cc4ccccc4)C(=O)[C@H](CC(C)C)N=C5c4ccccc4)ccc2C)C3)cn1 [Example 33, (S)-1-benzyl-3-isobutyl-N-(4-methyl-3-(1-methyl-7-((6-methylpyridin-3-yl)amino)-2-oxo-1,4-dihydropyrimido[4,5-d]pyrimidin-3(2H)-yl)phenyl)-2-oxo-5-phenyl-2,3-dihydro-1H-benzo[e][1,4]diazepine-8-carboxamide]
remaining activity at 1 µM [1]: ≤ 30%
pIC50 [2]: 6.22 to 6.40
pIC50 [3]: 6.70 to 9.00
remaining activity at 1 µM [4]: ≤ 30%
pIC50 [5]: < 6.22
remaining activity at 1 µM [6]: ≤ 30%
remaining activity at 1 µM [7]: ≤ 30%
remaining activity at 1 µM [8]: ≤ 30%
remaining activity at 1 µM [9]: ≤ 30%
pIC50 [10]: 6.22 to 6.40
pIC50 [11]: 6.70 to 9.00
pIC50 [12]: 6.70 to 9.00
remaining activity at 1 µM [13]: ≤ 30%
remaining activity at 1 µM [14]: ≤ 30%
remaining activity at 1 µM [15]: ≤ 30%
pIC50 [16]: 6.70 to 9.00
remaining activity at 1 µM [17]: ≤ 30%
pIC50 [18]: < 6.22
remaining activity at 1 µM [19]: ≤ 30%
remaining activity at 1 µM [20]: ≤ 30%
